The test has as its system guinea pig ileal longitudinal smooth muscle. Description: Calcium channel antagonist testing: inhibition of muscarinic receptor-mediated Ca2+-dependent contraction (response to CD) of guinea pig ileal longitudinal smooth muscle. As to conditions: for IC50: Cavia porcellus, 50% inhibition of tonic contraction to CD 5×10^-7 M, compound added 10 min before CD, 37° C., pH 7.4, read-out: Calcium channel antagonist act., inhib. act. on contractile response to CD, ID50; for calcium channel antagonist activity, comparison to Nifedipine (TM): conclusion from Table 7. The class given is cell-based. On the procedure:
Male albino guinea pigs (body weight 300-450 g) were sacrificed by decapitation. The intestine was removed above the ileo-caecal junction. Longitudinal smooth muscle segments of 2 cm length were mounted under a resting tension of 300-400 mg. […] The muscles were equilibrated for 1 h with a solution change every 15 min. Two successive control contractions were elicited at 15 min intervals with 5×10^-7 M cis-2-methyl- 4-dimethylaminomethyl-1,3-dioxolane methiodide (CD). The isometric contractions were recorded with a force displacement transducer (FT 03C) on a GRASS physiograph. The means of the two contractile responses was taken as the 100% value for the tonic (slow) component of the response. The muscle was washed with Hepes saline solution and was allowed to re-equilibrate. The calcium antagonist (test compound) was added ten min before the dose-response for CD was determined. The drug-induced inhibition of contraction was expressed as percent of control. The ID50 values were graphically determined from the concentration-response curves.

The record followed here is patent US4771057A, “Reduced pyridyl derivatives with cardiovascular regulating properties” (University of Alberta, priority 1986, dated 1988).

Take `COC(=O)C1=C(C)NC(C)=C(C(=O)OC(C)C)C1c1ccncc1` [Compound D-10, 3-Isopropyl-5-methyl 2,6-dimethyl-4-(4'-pyridyl)-1,4-dihydropyridine-3,5-dicarboxylate]: the IC50 was 560 nM and the “calcium channel antagonist activity, comparison to Nifedipine (TM)” value (shortened to “calcium channel antagonist activity”) is reported as “active calcium channel antagonists, being comparable to Nifedipine (TM)”.
For `COC(=O)C1=C(C)NC(C)=C(C(=O)OCC(C)C)C1c1ccncc1` [Compound D-11, 3-Isobutyl-5-methyl 2,6-dimethyl-4-(4'-pyridyl)-1,4-dihydropyridine-3,5-dicarboxylate], the IC50 came out at 220 nM and the “calcium channel antagonist activity” value is recorded as “active calcium channel antagonists, being comparable to Nifedipine (TM)”.
Consider `COC(=O)C1=C(C)NC(C)=C(C(=O)OCCN(C)C)C1c1ccncc1` [Compound D-12, 3-[2-(N,N--dimethylamino)ethyl] -5-methyl 2,6-dimethyl-4-(4'-pyridyl)-1,4-dihydropyridine-3,5-dicarboxylate], for which the IC50 was found to be 51300 nM.
On the same count and under the same terms, the value for `CCOC(=O)C1=C(C)NC(C)=C(C(=O)OCC)C1c1ccccn1` [Compound D-13, 3,5-diethyl 2,6-dimethyl-4-(2'-pyridyl)-1,4-dihydropyridine-3,5-dicarboxylate] was 180 nM.
`CC1=C(C(=O)OC(C)C)C(c2ccccn2)C(C(=O)OC(C)C)=C(C)N1` [Compound D-14, 3,5-Diisopropyl 2,6-dimethyl-4-(2'-pyridyl)-1,4-dihydropyridine-3,5-dicarboxylate]: the IC50 was determined as 125 nM and the “calcium channel antagonist activity” value is “active calcium channel antagonists, being comparable to Nifedipine (TM)”.
With `CC1=C(C(=O)OCC(C)C)C(c2ccccn2)C(C(=O)OCC(C)C)=C(C)N1` [Compound D-15, 3,5-Diisobutyl 2,6-dimethyl-4-(2'-pyridyl)-1,4-dihydropyridine-3,5-dicarboxylate], the IC50 amounted to 93.6 nM and the “calcium channel antagonist activity” value is reported as “active calcium channel antagonists, being comparable to Nifedipine (TM)”.
For `CCOC(=O)C1=C(C)NC(C)=C(C(=O)OCC)C1c1cccnc1` [Compound D-17, 3,5-Diethyl 2,6-dimethyl-4-(3'-pyridyl)-1,4-dihydropyridine-3,5-dicarboxylate], the IC50 was found to be 346 nM and the “calcium channel antagonist activity” value is “active calcium channel antagonists, being comparable to Nifedipine (TM)”.
`CC1=C(C(=O)OC(C)C)C(c2cccnc2)C(C(=O)OC(C)C)=C(C)N1` [Compound D-18]: the IC50 was 260 nM and the “calcium channel antagonist activity” value is “active calcium channel antagonists, being comparable to Nifedipine (TM)”.
On to `CC1=C(C(=O)OCCN(C)C)C(c2cccnc2)C(C(=O)OCCN(C)C)=C(C)N1` [Compound D-20, 3,5-Bis-[2-(N,N--dimethylamino)ethyl]2,6-dimethyl-4-(3'pyridyl)-1,4-dihydropyridine-3,5-dicarboxylate], for which the IC50 was 179000 nM.
Turning to `CC1=C(C(=O)OC(C)C)C(c2ccncc2)C(C(=O)OC(C)C)=C(C)N1` [Compound D-22, 3,5-Diisopropyl 2,6-dimethyl-4-(4'-pyridyl)-1,4-dihydropyridine-3,5-dicarboxylate], the IC50 turned out to be 231 nM and the “calcium channel antagonist activity” value was “active calcium channel antagonists, being comparable to Nifedipine (TM)”.
Consider `CC1=C(C(=O)OCC(C)C)C(c2ccncc2)C(C(=O)OCC(C)C)=C(C)N1` [Compound D-23, 3,5-Diisobutyl 2,6-dimethyl-4-(4'-pyridyl)-1,4-dihydropyridine-3,5-dicarboxylate], for which the IC50 was 580 nM and the “calcium channel antagonist activity” value is “active calcium channel antagonists, being comparable to Nifedipine (TM)”.
`COC(=O)C1=C(C)NC(C)=C(C#N)C1c1ccncc1` [Compound D-26]: the IC50 is 87700 nM.
In the case of `CC1=C(C#N)C(c2cccnc2)C(C#N)=C(C)N1` [Compound D-27, 3,5-dicyano-2,6-dimethyl-4-(3'-pyridyl)-1,4-dihydropyridine], the IC50 was 357000 nM.
